# Test results taken from patent US11034700B2, “Substituted pyrrolidine compound and use thereof” (Takeda Pharmaceutical Company Limited, priority 2017, dated 2021).
# Biological target: T1, human OX2 receptor (Homo sapiens, UniProt O43614)
# T1 construct: expressed in transfected cells
# T1 sequence (O43614 1-444): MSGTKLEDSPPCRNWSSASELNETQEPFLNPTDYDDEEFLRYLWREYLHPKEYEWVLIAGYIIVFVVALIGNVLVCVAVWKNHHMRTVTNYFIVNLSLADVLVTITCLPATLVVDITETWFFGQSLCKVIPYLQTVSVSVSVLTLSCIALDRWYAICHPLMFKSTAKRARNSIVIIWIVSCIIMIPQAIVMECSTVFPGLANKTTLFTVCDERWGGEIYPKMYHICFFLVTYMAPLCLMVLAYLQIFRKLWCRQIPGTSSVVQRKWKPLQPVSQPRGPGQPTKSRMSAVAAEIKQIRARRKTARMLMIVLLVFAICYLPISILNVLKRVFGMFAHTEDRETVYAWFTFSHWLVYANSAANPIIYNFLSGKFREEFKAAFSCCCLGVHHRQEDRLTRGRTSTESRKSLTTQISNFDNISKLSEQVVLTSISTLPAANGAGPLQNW
# Experiment: Measurement of orexin type 2 receptor agonist activity (Fluo-4 calcium fluorescence, FDSS)
# Type: cell-based
# Details: compound at 3 μM; CHO cells forcibly expressing human OX2 receptor; DMSO = 0%, orexin A (human) 10 nM = 100%
row,"OX2R agonist activity (3 μM, %)",Structure (SMILES)
1,101%,"CO[C@@H]1CN(C(=O)c2cc(C)ccc2C)C[C@H]1Oc1cccc(NS(=O)(=O)c2ccccc2F)c1 [Example 82, N-(3-(((3R,4R)-1-(2,5-dimethylbenzoyl)-4-methoxypyrrolidin-3-yl)oxy)phenyl)-2-fluorobenzenesulfonamide]"
2,96%,"CO[C@@H]1CN(C(=O)c2cc(C)ccc2C)C[C@H]1Oc1cccc(NS(=O)(=O)c2sccc2Cl)c1 [Example 84, 3-chloro-N-(3-(((3R,4R)-1-(2,5-dimethylbenzoyl)-4-methoxypyrrolidin-3-yl)oxy)phenyl)thiophene-2-sulfonamide]"
3,80%,"COc1ccccc1S(=O)(=O)Nc1cccc(O[C@@H]2CN(C(=O)c3c(C)cccc3F)C[C@H]2OC)c1 [Example 96, N-(3-(((3R,4R)-1-(2-fluoro-6-methylbenzoyl)-4-methoxypyrrolidin-3-yl)oxy)phenyl)-2-methoxybenzenesulfonamide]"
4,93%,"COc1ccccc1S(=O)(=O)Nc1cccc(O[C@@H]2CN(C(=O)c3c(C)cccc3OC)C[C@H]2OC)c1 [Example 97, 2-methoxy-N-(3-(((3R,4R)-4-methoxy-1-(2-methoxy-6-methylbenzoyl)pyrrolidin-3-yl)oxy)phenyl)benzenesulfonamide]"
